According to publication PMC10343472, “Cyclopentenylcytosine (CPE-C): In Vitro and In Vivo Evaluation as an Antiviral against Adenoviral Ocular Infections” (Molecules, 2023):
Marks after values point to notes of the source that are not given here.

Tests used:
HAdV1 = test: plaque reduction assay in A549 cells, HAdV1; assay type: cell-based; conditions: Human adenovirus sp.
Method: (§1) The in vitro antiviral testing was done using a standard plaque reduction assay with A549 human lung carcinoma cells as previously described. The EC50s were determined using a Fitted Line Plot Regression analysis with Minitab Version 21 software. The EC50 is the effective concentration that inhibits plaque formation by 50%. The HAdV types tested represent the most common adenovirus serotypes that cause ocular infections (HAdV8, HAdV19/64, HAdV37 (EKC); HAdV3, HAdV4, HAdV7a (follicular conjunctivitis)) and serotypes that cause conjunctivitis and can replicate in the rabbit ocular model (HAdV1, HAdV2, HAdV5).
(§2) For the in vitro antiviral testing, clinical adenovirus isolates of types HAdV1, HAdV2, HAdV3, HAdV4, HAdV5, HAdV7a, HAdV8, and HAdV19/64 were anonymously collected from patients presenting with typical adenoviral conjunctivitis at the Charles T. Campbell Ophthalmic Microbiology Laboratory at the UPMC Eye Center, University of Pittsburgh, Pittsburgh, PA, USA. The isolates were retrieved from a frozen −80 °C retrospective clinical collection that was de-identified and stored for diagnostic test validations. The types of isolates were determined using serum neutralization. Recently, HAdV19 has been reclassified as HAdV64 [41]; however, for the purpose of this study, it was designated as HAdV19/64. No clinical isolates of HAdV37 were identified, therefore the ATCC (American Type Culture Collection, Manassas, VA, USA) reference strain of HAdV37 was used. The clinical isolates along with the ATCC HAdV37 reference strain were grown in A549 cell (CCL-185, ATCC) monolayers and stocks were prepared, aliquoted, and frozen at –80 °C. The titers of the stock viruses were determined as described in Section 4.7. The same clinical isolate of HAdV5 used for the in vitro antiviral testing was also used for the in vivo antiviral evaluation in the Ad5/NZW rabbit ocular replication model.
(§3) A549 human lung carcinoma cells were grown and maintained in Eagle’s MEM supplemented with 10% fetal bovine serum (Sigma Cell Culture Reagents, St. Louis, MO, USA). The A549 cell line was used to prepare the adenovirus stocks and for the determination of viral titers in the Ad5/NZW rabbit ocular replication model and in the in vitro plaque reduction assays.
(§4) Plaque reduction assays were performed 2–4 times using 24-well multiplates containing A549 monolayers. One plate per virus isolate per drug was used. The 24-well multiplates were inoculated with approximately 100 plaque-forming units (PFU) of HAdV per well. After a three-hour adsorption period, the inocula were removed from all wells. […] The plates were dried, and the number of plaques per well was counted using a dissecting microscope. […] The mean and standard deviation EC50 concentrations of 2–4 trials were then determined for each HAdV isolate. […]

HAdV7a = test: plaque reduction assay in A549 cells, HAdV7a; assay type: cell-based, Human adenovirus
Method: as §1, §2, §3
Plaque reduction assays were performed 2–4 times using 24-well multiplates containing A549 monolayers. One plate per virus isolate per drug was used. The 24-well multiplates were inoculated with approximately 100 plaque-forming units (PFU) of HAdV per well. After a three-hour adsorption period, the inocula were removed from all wells. One ml of overlay media with 0.5% methylcellulose containing 100, 10, 1.0, 0.1, 0.01, or 0.001 μg/mL of CPE-C or cidofovir was added to 3 wells each. To the remaining 6 wells, 1 mL of overlay media with 0.5% methylcellulose and without CPE-C or cidofovir was added. The plates were incubated at 37 °C in 5% CO2 until plaque formation was visible. At that time, the cells were fixed and stained with 0.5% gentian violet containing formalin. The plates were dried, and the number of plaques per well was counted using a dissecting microscope. […] The mean and standard deviation EC50 concentrations of 2–4 trials were then determined for each HAdV isolate. […]

HAdV3 = test: plaque reduction assay in A549 cells, HAdV3; assay type: cell-based; conditions: Human adenovirus sp.
Method: as §1, §2, §3, §4

HAdV5 = test: Ad5/NZW rabbit ocular replication model; assay type: in vivo, New Zealand white (NZW) rabbits; conditions: for number of HAdV5-positive cultures per group on days 1, 3, 4, 5, 7 and 14 compared with saline control: Fisher Exact Test, p < 0.05; for Duration of HAdV5 Shedding, Mean ± Sd: n = 20; for Mean ± Sd Combined HAdV5 Ocular Titers, Early Phase (Days 1–5) / Mean ± Sd Combined HAdV5 Ocular Titers, Late Phase (Days 7–14): n = 80; for reduction of the duration of shedding: vs saline control
Method: Using the Ad5/NZW rabbit ocular replication model, the current study was performed in duplicate trials using a total of 40 rabbits (20 per trial). Following the systemic and topical anesthesia described above, the rabbits were topically inoculated with 50 µL (1.5 × 10^6 PFU/eye) of HAdV5 in both eyes after corneal epithelial scarification (12 cross-hatched strokes of a #25 sterile needle). Twenty-four hours later, the rabbits were randomly assigned to one of four topical treatment groups (n = 10): (1) 3% CPE-C 4X/day, (2) 3% CPE-C 2X/day, (3) 0.5% Cidofovir 2X/day, and (4) Saline Control 4X/day. Rabbits were treated topically in both eyes according to the above treatment regimens for 7 days. The CPE-C ointments were administered as described above in the ocular toxicity study. Cidofovir and saline were administered as 37 µL aqueous drops. Following topical anesthesia with 0.5% proparacaine, ocular swabbing to recover HAdV5 from the tear film and corneal and conjunctival surfaces was performed on days 0, 1, 3, 4, 5, 7, 9, 11, and 14 after inoculation. The cultures were taken at least 1 h after the final dose of antiviral on the days the antivirals were administered. The swabs from each eye were placed individually into tubes containing 1 mL of tissue culture media and were frozen at −80 °C pending viral plaque assay.
The samples to be assayed were diluted 1:10 for up to 6 dilutions. One-tenth of a ml of both the undiluted sample and the dilutions was inoculated onto duplicate wells of 24-well multiplates containing A549 monolayers. The virus was adsorbed for 3 h at 37 °C in a 5% CO2-water vapor atmosphere. The plates were rocked intermittently to keep the cells from drying. Following adsorption, 1 mL of tissue culture media containing 0.5% methylcellulose was added to each well, and the plates were incubated at 37 °C in a 5% CO2-water vapor atmosphere. After the appropriate incubation period, the cells were fixed and stained with 0.5% gentian violet in formalin. The plates were dried, and the number of plaques per well was counted under a dissecting microscope. The viral titers were then calculated and expressed as plaque-forming units per milliliter (PFU/mL).
The in vitro EC50 data was analyzed with Two-Sample T-Tests using Minitab (Minitab Inc., State College, PA, USA) statistical software Version 21. Following the completion of both trials in the in vivo antiviral efficacy study, the data from each trial were analyzed statistically using Minitab and GraphPad online (https://www.graphpad.com/quickcalcs/contingency1/ (accessed on 16 February 2023)). […] Significance was established at the p ≤ 0.05 confidence level.

[1] = A549, HAdV1, converted from μg/mL
[2] = HAdV1 clinical isolate, A549 cells, mean ± SD of 2–4 trials
[3] = Human adenovirus sp., A549, HAdV7a clinical isolate, A549 cells, mean ± SD of 2–4 trials
[4] = Human adenovirus sp., A549, HAdV7a, converted from μg/mL
[5] = A549, HAdV3, converted from μg/mL
[6] = HAdV3 clinical isolate, A549 cells, mean ± SD of 2–4 trials
[7] = 0.5% drops topical 2X/Day for 7 days
[8] = 3% ointment topical 2X/Day for 7 days
[9] = 3% ointment topical 4X/Day for 7 days

With `Nc1ccn(C[C@@H](CO)OCP(=O)(O)O)c(=O)n1` [Cidofovir, cidofovir, reference compound] the EC50 (HAdV1; [1]) was 18.9 ± 2.11 µM, the EC50 (HAdV1; [2]) was 5.27 ± 0.588 µg/mL and the EC50 (HAdV7a; HAdV7a, converted from μg/mL) was 19.2 ± 0.491 µM. For the same compound, the EC50 (HAdV7a; [3]) was 5.37 ± 0.137 µg/mL, the EC50 (HAdV7a; [4]) was 19.2 ± 0.491 µM and the EC50 (HAdV3; [5]) was 14.8 ± 3.26 µM. For the same compound, the EC50 (HAdV3; [6]) was 4.12 ± 0.91 µg/mL, the “number of HAdV5-positive cultures per group on days 1, 3, 4, 5, 7 and 14 compared with saline control” value (HAdV5; 0.5% 2X/day) was “significantly reduced” and the “HAdV5-positive cultures on day 9 compared with saline control” value (HAdV5; 0.5% 2X/day, p = 0.0197, FET) was “significantly fewer”. For the same compound, the “HAdV5-Positive Eye Cultures/Total, Early Phase (Days 1–5)” value (HAdV5; [7]) was 26/80, the “HAdV5-Positive Eye Cultures/Total, Early Phase (Days 1–5), percent” value (HAdV5; [7]) was 33% and the “HAdV5-Positive Eye Cultures/Total, Late Phase (Days 7–14)” value (HAdV5; [7]) was 1/80. For the same compound, the “HAdV5-Positive Eye Cultures/Total, Late Phase (Days 7–14), percent” value (HAdV5; [7]) was 1%, the “HAdV5-Positive Eye Cultures/Total, Overall (Days 1–14)” value (HAdV5; [7]) was 27/160 and the “HAdV5-Positive Eye Cultures/Total, Overall (Days 1–14), percent” value (HAdV5; [7]) was 17%. For the same compound, the “Duration of HAdV5 Shedding, Mean ± Sd” value (HAdV5; [7]) was 2.0 ± 1.8 ^d Days, the “Mean ± Sd Combined HAdV5 Ocular Titers, Early Phase (Days 1–5)” value (HAdV5; [7]) was 6.7 ± 12.7 × 10^0 b Log10 PFU/mL and the “Mean ± Sd Combined HAdV5 Ocular Titers, Late Phase (Days 7–14)” value (HAdV5; [7]) was 0.3 ± 2.2 × 10^0 c Log10 PFU/mL.
`Nc1ccn([C@@H]2C=C(CO)[C@@H](O)[C@H]2O)c(=O)n1` [CPE-C, Cyclopentenylcytosine] showed an EC50 (HAdV1; [1]) of 0.214 ± 0.027 µM, an EC50 (HAdV1; [2]) of 0.051 ± 0.007 µg/mL and an EC50 (HAdV7a; [3]) of 0.055 ± 0.026 µg/mL. The EC50 (HAdV7a; [4]) was 0.194 ± 0.057 µM, the EC50 (HAdV3; [5]) was 0.165 ± 0.016 µM and the EC50 (HAdV3; [6]) was 0.04 ± 0.004 µg/mL. For the same compound, the “number of HAdV5-positive cultures per group on days 1, 3, 4, 5, 7 and 14 compared with saline control” value (HAdV5; 3% 2X/day) was “significantly reduced”, the “number of HAdV5-positive cultures per group on days 1, 3, 4, 5, 7 and 14 compared with saline control” value (HAdV5; 3% 4X/day) was “significantly reduced” and the “reduction of the duration of shedding” value (HAdV5; 3% administered 2X per day for 7 days) was 5.6 days. For the same compound, the “reduction of the duration of shedding” value (HAdV5; 3% administered 4X per day for 7 days) was 6.8 days, the “HAdV5-Positive Eye Cultures/Total, Early Phase (Days 1–5)” value (HAdV5; [8]) was 29/80 and the “HAdV5-Positive Eye Cultures/Total, Early Phase (Days 1–5), percent” value (HAdV5; [8]) was 36%. The “HAdV5-Positive Eye Cultures/Total, Late Phase (Days 7–14)” value (HAdV5; [8]) was 2/80, the “HAdV5-Positive Eye Cultures/Total, Late Phase (Days 7–14), percent” value (HAdV5; [8]) was 3% and the “HAdV5-Positive Eye Cultures/Total, Overall (Days 1–14)” value (HAdV5; [8]) was 31/160. For the same compound, the “HAdV5-Positive Eye Cultures/Total, Overall (Days 1–14), percent” value (HAdV5; [8]) was 19%, the “Duration of HAdV5 Shedding, Mean ± Sd” value (HAdV5; [8]) was 2.5 ± 2.3 ^d Days and the “Mean ± Sd Combined HAdV5 Ocular Titers, Early Phase (Days 1–5)” value (HAdV5; [8]) was 3.5 ± 18.1 × 10^1 b Log10 PFU/mL. The “Mean ± Sd Combined HAdV5 Ocular Titers, Late Phase (Days 7–14)” value (HAdV5; [8]) was 3.6 ± 25.2 × 10^0 c Log10 PFU/mL, the “HAdV5-Positive Eye Cultures/Total, Late Phase (Days 7–14)” value (HAdV5; [9]) was 6/80 and the “HAdV5-Positive Eye Cultures/Total, Late Phase (Days 7–14), percent” value (HAdV5; [9]) was 8%. For the same compound, the “HAdV5-Positive Eye Cultures/Total, Overall (Days 1–14)” value (HAdV5; [9]) was 24/160, the “HAdV5-Positive Eye Cultures/Total, Overall (Days 1–14), percent” value (HAdV5; [9]) was 15% and the “Duration of HAdV5 Shedding, Mean ± Sd” value (HAdV5; [9]) was 1.3 ± 1.6 ^d Days. For the same compound, the “Mean ± Sd Combined HAdV5 Ocular Titers, Early Phase (Days 1–5)” value (HAdV5; [9]) was 1.6 ± 4.8 × 10^1 b Log10 PFU/mL and the “Mean ± Sd Combined HAdV5 Ocular Titers, Late Phase (Days 7–14)” value (HAdV5; [9]) was 0.9 ± 4.4 × 10^0 c Log10 PFU/mL.
